Experimental data: patent US8703756B2, “Synthetic procedure and cancer treatment with cisplatin derivatives” (The Board of Regents of the Nevada System of Higher …, priority 2012, dated 2014)

Tests used:
[1] = tested on: A549 human lung cancer cells; assay: MTS cell proliferation assay, A549 lung cancer cells; type: cell-based; conditions: for effects in this experimental setting: human cancer cell line setting of b48
Procedure: A series of cisplatin analogs of the formula (4,4′-bis[RO]-2,2′-bipyridine)PtCl2 [where, R=—(CH2)nCH3, —(CH2)nOCH3, —(CH2)n[O(CH2)m]yO(CH2)zCH3 (n=1-10; m, y, z=0-10)] were synthesized and characterized using ^1H NMR, ^13C NMR spectroscopy, and elemental analysis. The antitumor activities of these compounds were examined in a lung cancer cell line (A549) using the MTS cell proliferation assay and the results were compared to that of cisplatin and cisplatin derivatives.
(§1) Cells were cultured at a density of 2.1×10^3 cells per well in flat bottomed 96-well plates in 100 μl of medium supplemented with 10% fetal bovine serum (FBS), 25 mM HEPES buffer (pH 7.4), Penicillin (100 U/ml) and Streptomycin (100 μg/ml) and incubated at 37° C. in a humidified, 5% CO2 atmosphere for 2 days. The cells were then treated with DMSO or the appropriate drugs for 1 hour, washed thrice with 100 μl phosphate buffered saline (PBS), and incubated in 100 μl of fresh medium. After 2 days, the medium was replace with 120 μl of medium containing 50 μM phenazine ethosulfate (PES) and 317 μg/mL CellTiter 96® Aqueous One Solution Reagent (MTS) (Promega, Madison, Wis.). After 4 hours in culture the cell viability was determined by measuring the absorbance at 490 nm using a Tecan Infinite M1000 plate reader.
Cells were treated with CDDP or the platinum analogs at various concentrations for 1 hour and the viability was determined 48 h post-treatment using the MTS assay.
Cells were treated with CDDP or the platinum analogs at various concentrations for 48 hour and the viability was determined post-treatment using the MTS assay.

[2] = tested on: DU-145 human prostate cancer cells; assay: MTS assay, DU-145 prostate cancer cells; type: cell-based; conditions: DU-145, up to a 1 mM concentration
Procedure: as §1
(§2) Cells were treated with CDDP or the platinum analog at various concentrations for 1 hour and the viability was determined 48 h post-treatment using the MTS assay.
(§3) This is a table comparison of EC50 (μM) determined from MTS assay data of the various cell lines treated with CDDP or the analog where R=(CH2)3CH3.

[3] = tested on: MCF7 human breast cancer cells; assay: MTS assay, MCF7 breast cancer cells; type: cell-based; conditions: MCF7, up to a 1 mM concentration
Procedure: as §1, §2, §3

[4] = tested on: T-47D human breast cancer cells; assay: MTS assay, T-47D breast cancer cells; type: cell-based; conditions: up to a 1 mM concentration
Procedure: as §1, §2, §3

[5] = tested on: HCC38 human breast cancer cells; assay: MTS assay, HCC38 breast cancer cells; type: cell-based; conditions: HCC38, up to a 1 mM concentration
Procedure: as §1, §2, §3

[6] = tested on: MDA-MB-435 human melanoma cancer cells; assay: MTS assay, MDA-MB-435 melanoma cancer cells; type: cell-based; conditions: MDA-MB-435, up to a 1 mM concentration
Procedure: as §1, §2, §3

[7] = tested on mice; cited from earlier work

N.N.O=C([O-])C1(C(=O)[O-])CCC1.[Pt+2] [carboplatin]
effects in this experimental setting [1]: lack of effects

N.N.[Cl][Pt][Cl] [cisplatin, cis-diamminedichloroplatinum]
effectiveness, 48 h treatment ([1]; A549, concentrations higher than 500 μM): not very effective
effects in this experimental setting [1]: lack of effects
effect on the A549 cells ([1]; one hour treatment, up to a 1 mM concentration): no effect
effect on the cell line [2]: little or no effect
effect on the cell line [3]: little or no effect
effect on the cell line [4]: little or no effect
effect on the cell line [5]: little or no effect
effect on the cell line [6]: little or no effect
percent increased life span (% ILS) [7]: 65-80%

O=C(O)C(=O)O.[NH-][C@@H]1CCCC[C@H]1[NH-].[Pt+2] [oxaliplatin]
effects in this experimental setting [1]: lack of effects

Pd(II)(cis-2,2′-bipyridine)(NO3)2
percent increased life span (% ILS) [7]: 55-70%
